Results: patent US20240058310A1, “METHODS OF TREATING DISEASES AND DISORDERS ASSOCIATED WITH CALCIUM ION SIGNALING” (Temple University-Of the Commonwealth System of Higher …, priority 2022, published 2024)

Tests used:
melanoma metastasis = conditions: mice; literature reports; cited from earlier work
[1] = system: WM983 human melanoma cells; test: Matrigel transwell invasion assay, WM983 cells; format: cell-based; design: invasion (Matrigel transwell): dose or concentration left out as unconfirmed
Procedure: (§1) Transwell Migration Assays—Transwell migration assays were performed as previously described (Hooper, R., et al., 2015, Molecular & Cellular Biology, 35:2790-2798). Briefly, Matrigel® transwell chambers (Corning, Bedford, MA) were hydrated with serum-free OptiMEM for 2 hours (37° C., 5% CO2) prior to the addition of 2,500 cells/well. Growth optimal media was placed on the bottom of the chamber prior to incubation (20 hours; 37° C., 5% CO2). After incubation, media was removed, and edges were cleaned before methanol fixation and staining with crystal violet (0.5%, 2 min). Images were taken by EVOS cell imager and quantified on ImageJ.

[2] = system: B16N murine melanoma cells; test: Matrigel transwell invasion assay, B16N cells; format: cell-based; design: invasion (Matrigel transwell): dose or concentration left out as unconfirmed
Procedure: as §1

[3] = system: patient melanoma surgical explant cells; test: Matrigel transwell invasion assay, patient explant cells; format: cell-based, human; conditions: TAK475 10 μM, compactin 2 μM, IA65 2 μM or OSMI1 40 μM; 20 hours
Procedure: as §1
Isolation of Cells from Patient Surgical Explants—Tissue was incubated in DMEM containing Liberase® TL (Roche Applied Science; 37° C., 30 min). Following incubation, tissue was cut using a sharp razor and dissociated through 50 μM Medicon screens (Becton Dickinson Biosciences, San Jose, CA; 2 min). Tissue samples were resuspended in DFD media (DMEM, 20% FBS; 500 ug/ml DNAse I, Sigma, St. Louis, MO) and passed through an 18-gauge syringe to break up clumps of cells before filtration (70 μm, Corning, Glendale, AZ, centrifugation and resuspension in DMEM (2% FBS; 1% Gentamycin) for 3 days before use.

[4] = system: melanoma cells (WM983, B16N); test: Viability assay (Trypan Blue); format: cell-based; conditions: 2 μM IA65 overnight, control, UV2, UV5 cells
Procedure: Viability Assays—500,000 cells were plated in 24 well plates overnight in the absence or presence of 2 μM IA65. Cells were then trypsinized with 0.25% Trypsin-EDTA for 10 minutes at 37° C. Following, cells were treated with 0.4% Trypan Blue and placed in a Bio-Rad slidereader and the number of stained vs. unstained cells compared.

[5] = system: WM983 human melanoma cells; test: Scratch (wound) migration assay, WM983 cells; format: cell-based; conditions: 2 μM IA65, 0-, 10-, 20-hour
Procedure: Migration Assay—Cells were plated on glass coverslips (Ibidi, Fitchburg, WI) overnight to form a complete monolayer before “wounding” with a p20 pipette tip. Coverslips were placed in an incubation chamber (37° C.; 5% CO2) and monitored by confocal microscopy (Leica SP8 Laser Scanning Microscope). Z-stack brightfield images were obtained every 20 minutes for 20 hours; the % of the wound that was refilled over time was calculated using ImageJ.

[6] = system: SOCE in B16N murine melanoma cells; test: SOCE measurement (Fura2, Tg then Ca2+ re-addition) in B16N cells; format: cell-based; conditions: B16N control, UV2, UV5, O1C44; 2 μM IA65
Procedure: (§2) UV Exposure—Cells were plated on glass coverslips for 24 hours before changing to PBS. Lids were replaced with a thin layer of taut plastic wrap before irradiating with a broadband UV spectrum containing 35% UVA and 65% UVB (with peak emission at 313 nm in the UVB range (De Fabo, E. C., et al, 2004, Cancer Research, 64:6372-6376)). Cells received a total UV dose of 175 J/m^2 over 90 seconds at a rate of 1.94 W/m^2. Approximately 80% of the melanoma cells survive this exposure. Cells were passaged 1:10 every 3 days and cultured under growth optimal conditions for the indicated time period (see Cell Culture below) before subsequent experimentation.
(§3) SOCE Measurement—Cells grown on glass coverslips were incubated in a cation-safe buffer (107 mM NaCl, 7.2 mM KCl, 1.2 mM MgCl2, 11.5 mM Glucose, 20 mM HEPES-NaOH, 1 mM CaCl2, pH 7.2) and loaded with Fura2-acetoxymethylester (Fura2-AM; 2 μM) for 30 min at 24° C. as previously described (Go, C. K., et al, 2019, Science Signaling, 12; Hooper, R., et al., 2015, Molecular and Cellular Biology, 35:2790-2798). Cells were washed and allowed to de-esterify for a minimum of 30 min at 24° C. […] Ca^2+ measurements were taken using a Leica DMI 6000B fluorescence microscope controlled by Slidebook software (Intelligent Imaging Innovations, Denver, CO). […]

[7] = system: SOCE in WM983 human melanoma cells; test: SOCE measurement (Fura2, Tg then Ca2+ re-addition) in WM983 cells; format: cell-based
Procedure: as §2
(§4) SOCE Measurement—Cells grown on glass coverslips were incubated in a cation-safe buffer (107 mM NaCl, 7.2 mM KCl, 1.2 mM MgCl2, 11.5 mM Glucose, 20 mM HEPES-NaOH, 1 mM CaCl2, pH 7.2) and loaded with Fura2-acetoxymethylester (Fura2-AM; 2 μM) for 30 min at 24° C. as previously described (Go, C. K., et al, 2019, Science Signaling, 12; Hooper, R., et al., 2015, Molecular and Cellular Biology, 35:2790-2798). Cells were washed and allowed to de-esterify for a minimum of 30 min at 24° C. Following de-esterification, cells were treated with 2 μM Thapsigargin (SERCA inhibitor) for 10 minutes prior to imaging. Ca^2+ measurements were taken using a Leica DMI 6000B fluorescence microscope controlled by Slidebook software (Intelligent Imaging Innovations, Denver, CO). Fluorescence emission at 505 nm was monitored in response to excitation at alternating 340 nm and 380 nm wavelengths at a frequency of 0.67 Hz; intracellular Ca^2+ measurements are shown at 340/380 nm ratios obtained from groups (2-45 for patient samples, 35-45 for established cell lines) of single cells.

[8] = system: SOCE in patient melanoma surgical explant cells; test: SOCE measurement in cells from patient surgical explants; format: cell-based, human; conditions: patient explant cells treated with drug in presence of Tg, 15 minutes
Procedure: as §4
Isolation of Cells from Patient Surgical Explants—Tissue was incubated in DMEM containing Liberase® TL (Roche Applied Science; 37° C., 30 min). Following incubation, tissue was cut using a sharp razor and dissociated through 50 μM Medicon screens (Becton Dickinson Biosciences, San Jose, CA; 2 min). […]

[9] = system: SOCE in UACC257 human melanoma cells; test: SOCE measurement (Fura2, Tg then Ca2+ re-addition) in UACC257 cells; format: cell-based; conditions: non-SOCE suppressed UACC257 UV5 cells; overnight treatment
Procedure: as §2, §3

O=S(=O)(c1ccccc1)N(CC(F)(F)F)c1ccc(C(O)(C(F)(F)F)C(F)(F)F)cc1 [T0901317]
melanoma metastasis (melanoma metastasis): suppressed

COc1ccccc1[C@@H](NS(=O)(=O)c1ccc2[nH]c(=O)ccc2c1)C(=O)N(Cc1ccco1)Cc1cccs1 [OSMI1]
invasion (Matrigel transwell) ([1]; SOCE-suppressed WM983 cells, siRNA targeting OGT): reduced invasion | invasion (Matrigel transwell) ([2]; SOCE-suppressed B16N cells, siRNA targeting OGT): reduced invasion | invasion in vitro of patient cells [3]: diminished invasion

O=C(O)c1ccc(Nc2nc(C(F)(F)F)c(-c3ccccc3)s2)cc1 [IA65, 4-((5-Phenyl-4-(trifluoromethyl)thiazol-2-yl)amino)benzoic acid]
cell viability [4]: no effect | UV-induced enhanced cell migration (scratch) [5]: did not have UV-induced enhanced cell migration | SOCE (reversal of SOCE suppression) [6]: reversal of SOCE suppression | invasion through Matrigel in a transwell assay ([1]; WM983 control, UV2, UV5, 2 μM IA65, 20 hours): failed to invade | invasion through Matrigel transwell ([2]; B16N control, UV2, UV5, O1C44, 2 μM IA65): inhibition of invasiveness | UV-induced SOCE suppression ([7]; UV2 and UV5 WM983 cells, 2 μM IA65, 15 minutes): strikingly reversed UV-induced SOCE suppression | SOCE ([7]; untreated (non-irradiated) WM983 cells, 2 μM IA65, 15 minutes): no effect | invasion in vitro of patient cells [3]: diminished invasion | change in SOCE in patient samples [8]: No significant effect

O=C(O)Cc1cccc(OCCCN(Cc2cccc(C(F)(F)F)c2Cl)CC(c2ccccc2)c2ccccc2)c1 [GW3965]
melanoma metastasis (melanoma metastasis): suppressed

COc1cccc([C@H]2O[C@H](CC(=O)N3CCC(CC(=O)O)CC3)C(=O)N(CC(C)(C)COC(C)=O)c3ccc(Cl)cc32)c1OC [TAK475]
UV-induced increases in melanoma invasiveness through Matrigel ([1]; UV5 WM983 cells, transwell, 20 hours): abrogated UV-induced increases in melanoma invasiveness | invasiveness through Matrigel ([1]; untreated (control) WM983 cells): no effect on invasiveness | SOCE [9]: no change | SOCE ([7]; UV5 WM983 cells, 24 hr treatment): markedly enhanced | SOCE ([7]; untreated WM983 cells, cholesterol synthesis inhibitor overnight): neither agent significantly affected SOCE | invasion in vitro of patient cells [3]: diminished invasion | change in SOCE in patient samples [8]: significantly enhanced SOCE
